Type in all cases: functional
One assay relates to Penicillium chrysogenum. Kind of assay: Antimicrobial activity against Penicillium notatum at 500 ug/disk. The conditions noted are these: for zone of inhibition at 500 µg/disc: read-out: IZ.
For assay [1], the system named is Pectobacterium carotovorum. Briefly: Antimicrobial activity against Erwinia carotovora at 500 ug/disk. The conditions noted are these: for zone of inhibition at 500 µg/disc: read-out: IZ.
The subject of another assay is Convolvulaceae. Briefly: Phytotoxicity against Morning glory assessed as leaf necrotic lesions at 100 ug by detached leaf spot method.
A further assay concerns Chenopodium album. Briefly: Phytotoxicity against Lamb's quarters assessed as leaf necrotic lesions at 100 ug by detached leaf spot method.
The next assay deals with Colletotrichum acutatum. Kind of assay: Antimicrobial activity against Colletotrichum acutatum at 500 ug/disk. The conditions noted are these: for zone of inhibition at 500 µg/disc: read-out: IZ.
For assay [2], the system named is Cornus florida. Kind of assay: Phytotoxicity against Dogwood NCPV 100 assessed as leaf necrotic lesions at 50 ug by detached leaf spot method.
Another assay relates to Sida spinosa. Kind of assay: Phytotoxicity against Prickly sida assessed as leaf necrotic lesions at 100 ug by detached leaf spot method.
Assay [3] relates to Curtobacterium flaccumfaciens. Kind of assay: Antimicrobial activity against Corynebacterium flaccumfaciens at 500 ug/disk. The conditions noted are these: for zone of inhibition at 500 µg/disc: read-out: IZ.
In a further assay the test system is Senna obtusifolia. Kind of assay: Phytotoxicity against Sicklepod assessed as leaf necrotic lesions at 100 ug by detached leaf spot method.
Assay [4] relates to Cornus florida. Briefly: Phytotoxicity against Dogwood NCPV 101 assessed as leaf necrotic lesions at 50 ug by detached leaf spot method.
The test system of the next assay is Ambrosia artemisiifolia. Kind of assay: Phytotoxicity against ragweed assessed as leaf necrotic lesions at 100 ug by detached leaf spot method.
Another assay relates to Nasturtium officinale. Kind of assay: Phytotoxicity against watercress assessed as leaf necrotic lesions at 100 ug by detached leaf spot method.
The test system of assay [5] is Cornus florida. Briefly: Phytotoxicity against Dogwood NCPV 102 assessed as leaf necrotic lesions at 50 ug by detached leaf spot method.
A further assay relates to Datura stramonium. Briefly: Phytotoxicity against Jimsonweed assessed as leaf necrotic lesions at 100 ug by detached leaf spot method.
In another assay the test system is Escherichia coli. Briefly: Antimicrobial activity against Escherichia coli at 500 ug/disk. The conditions noted are these: for zone of inhibition at 500 µg/disc: read-out: IZ.
In the next assay the test system is Sorghum halepense. Kind of assay: Phytotoxicity against Johnsongrass assessed as leaf necrotic lesions at 100 ug by detached leaf spot method.
The next assay relates to Aspergillus flavus. Briefly: Antimicrobial activity against Aspergillus flavus at 500 ug/disk. The conditions noted are these: for zone of inhibition at 500 µg/disc: read-out: IZ.
Assay [6] has as its system Agrobacterium tumefaciens. Kind of assay: Antimicrobial activity against Agrobacterium tumefaciens at 500 ug/disk. The conditions noted are these: for zone of inhibition at 500 µg/disc: read-out: IZ.
In the next assay the test system is Sorghum. Briefly: Phytotoxicity against Sorghum assessed as leaf necrotic lesions at 100 ug by detached leaf spot method.

Activity calls are given as the source filed them. No cut-off for these calls is given here.

Regarding `O=C(O)c1ccc(O)cc1` [PARABEN], the zone of inhibition at 500 µg/disc with Penicillium chrysogenum stood at 0 mm; in assay [1], 0 mm; with Colletotrichum acutatum it was 0 mm; in assay [3], 9 mm; in the assay with Escherichia coli it was 5 mm; with Aspergillus flavus, 0 mm. The zone of inhibition at 500 µg/disc in assay [6] is 0 mm. The Activity in the assay with Convolvulaceae stood at 15 mm2; in the assay on Chenopodium album, 9 mm2; with Cornus florida [2] it was 11 mm2; in the assay on Sida spinosa, 31 mm2; in the assay with Senna obtusifolia, 10 mm2; in the assay on Cornus florida [4], 10 mm2. For the same compound, the Activity with Ambrosia artemisiifolia was determined as 15 mm2; in the assay with Nasturtium officinale it was 17 mm2; in the assay on Cornus florida [5], 5 mm2; with Datura stramonium, 12 mm2; with Sorghum halepense, 22 mm2; with Sorghum it was 19 mm2.

Turning to `O=C1CC[C@@H](O)c2cccc(O)c21`, the outcome (in the assay with Penicillium chrysogenum; in [1]; in the assay with Colletotrichum acutatum; in assay [3]; with Escherichia coli; in the assay with Aspergillus flavus) was inactive. In assay [6], the result was inactive. Also, the Activity in the assay with Convolvulaceae amounted to 4 mm2; in the assay on Chenopodium album, 5 mm2; in the assay on Cornus florida [2], 12 mm2; in the assay with Sida spinosa, 18 mm2; in the assay with Senna obtusifolia, 2 mm2; in the assay on Cornus florida [4] it was 5 mm2. Moreover, the Activity was 12 mm2 in the assay with Ambrosia artemisiifolia; 14 mm2 in the assay on Nasturtium officinale; 13 mm2 with Cornus florida [5]; 6 mm2 in the assay on Datura stramonium; 13 mm2 in the assay on Sorghum halepense; 7 mm2 with Sorghum.

On to `C[C@H]1Cc2cc(O)cc(O)c2C(=O)O1`, for which the outcome (in the assay with Penicillium chrysogenum; in assay [1]; in the assay with Colletotrichum acutatum; in [3]; in the assay with Escherichia coli; with Aspergillus flavus) was inactive. In assay [6], the result was inactive. The Activity stood at 24 mm2 in the assay with Convolvulaceae; 14 mm2 in the assay with Chenopodium album; 7 mm2 with Cornus florida [2]; 40 mm2 with Sida spinosa; 20 mm2 in the assay on Senna obtusifolia; 14 mm2 in the assay on Cornus florida [4]. The Activity in the assay with Ambrosia artemisiifolia is 60 mm2; in the assay on Nasturtium officinale, 36 mm2; with Cornus florida [5] it was 10 mm2; in the assay on Datura stramonium it was 24 mm2; in the assay on Sorghum halepense, 34 mm2; in the assay with Sorghum it was 40 mm2.

For the compound `CC(=O)Oc1cc(O)c2c(c1)C[C@H](C)OC2=O`, the outcome (in the assay on Penicillium chrysogenum; in assay [1]; in the assay with Colletotrichum acutatum; in assay [3]; in the assay with Escherichia coli; with Aspergillus flavus) was inactive. In assay [6], the outcome was inactive. The Activity in the assay with Convolvulaceae was 13 mm2; in the assay on Chenopodium album, 6 mm2; in the assay with Cornus florida [2], 2 mm2; in the assay with Sida spinosa it was 34 mm2; with Senna obtusifolia, 14 mm2; in the assay on Cornus florida [4] it was 1 mm2. The Activity in the assay with Ambrosia artemisiifolia came out at 30 mm2; in the assay with Nasturtium officinale it was 31 mm2; with Cornus florida [5] it was 1 mm2; in the assay on Datura stramonium, 18 mm2; in the assay with Sorghum halepense it was 24 mm2; with Sorghum, 24 mm2.

`CC(=O)Oc1ccc(C(=O)O)cc1CC=C(C)C`: the zone of inhibition at 500 µg/disc in the assay on Penicillium chrysogenum came out at 5 mm; in assay [1], 4 mm; in the assay on Colletotrichum acutatum it was 6 mm; in [3], 10 mm; with Escherichia coli, 0 mm; in the assay with Aspergillus flavus it was 5 mm. In addition, the zone of inhibition at 500 µg/disc in [6] came out at 6 mm. Further, the Activity with Convolvulaceae turned out to be 19 mm2; in the assay on Chenopodium album, 8 mm2; with Cornus florida [2] it was 51 mm2; with Sida spinosa, 36 mm2; in the assay with Senna obtusifolia it was 18 mm2; with Cornus florida [4] it was 23 mm2. The Activity was 38 mm2 with Ambrosia artemisiifolia; 48 mm2 in the assay with Nasturtium officinale; 42 mm2 in the assay on Cornus florida [5]; 22 mm2 with Datura stramonium; 51 mm2 in the assay on Sorghum halepense; 73 mm2 in the assay on Sorghum.

In the case of `CC(C)=CCc1cc(C(=O)O)ccc1O`, the zone of inhibition at 500 µg/disc in the assay on Penicillium chrysogenum was 6 mm; in assay [1], 5 mm; with Colletotrichum acutatum, 8 mm; in [3], 5 mm; in the assay with Escherichia coli, 0 mm; in the assay on Aspergillus flavus, 4 mm. The zone of inhibition at 500 µg/disc in [6] turned out to be 8 mm. In addition, the Activity with Convolvulaceae was found to be 28 mm2; with Chenopodium album it was 23 mm2; in the assay on Cornus florida [2], 38 mm2; with Sida spinosa, 42 mm2; in the assay on Senna obtusifolia, 22 mm2; in the assay on Cornus florida [4], 14 mm2. The Activity in the assay on Ambrosia artemisiifolia worked out at 36 mm2; in the assay with Nasturtium officinale, 56 mm2; in the assay on Cornus florida [5], 24 mm2; with Datura stramonium, 31 mm2; in the assay with Sorghum halepense it was 46 mm2; with Sorghum it was 75 mm2.

For the origin of these results see ChEMBL document CHEMBL1158983, “Toxins Produced by the Dogwood Anthracnose Fungus Discula sp” (1991).
